Assay results reported in US20240366648A1, “NAD-AUGMENTATION THERAPY FOR PARKINSON'S DISEASE” (Vestlandets Innovasjonsselskap AS (VIS), priority 2021, published 2024).

Assays:
mice = settings: Xie et al. 2019; cited from earlier work
[1] = test system: GDF15, FGF21, Nf-L, inflammatory cytokines; test: Nf-L, GDF15, FGF21 and cytokine detection in serum and CSF; format: in vivo, human
Method: Neurofilament light chain (Nf-L) measurement in CSF and serum samples was carried out in duplicates using the Simoa NF-light Advantage (SR-X) Kit (Quanterix) according to the manufacturer's recommendations and analyzed on an Simoa SR-X instrument (Quanterix). GDF15 and FGF21 detection was carried out using ELISA kits GDF-15/MIC-1 Human ELISA (RD191135200R) and Fibroblast Growth Factor 21 Human ELISA (RD191108200R) from BioVendor according to manufacturer's recommendations. For CSF analyses of GDF15, CSF was diluted 1:2 in dilution buffer. All samples were analyzed twice in duplicates. Inflammatory Cytokine screening was carried out using the Human Cytokine Magnetic 35-plex panel (Invitrogen), detecting FGF-Basic, IL-1 beta, G-CSF, IL-10, IL-13, IL-6, IL-12, RANTES, Eotaxin, IL-17A, MIP-1 alpha, GM-CSF, MIP-1 beta, MCP-1, IL-15, EGF, IL-5, HGF, VEGF, IL-1 alpha, IFN-gamma, IL-17F, IFN-alpha, IL-9, IL-1RA, TNF-alpha, IL-3, IL-2, IL-7, IP-10, IL-2R, IL-22, MIG, IL-4, IL-8. CSF and serum samples were analyzed according to the manufacturer's recommendations and measured on a BioPlex 200 instrument (BioRad).
The between visit change ([visit 2]−[visit 1]) in MDS-UPDRS (total of subsections I-III; and individual subsections I, II and III) was compared between the NR and placebo groups using independent Student's t-test. In addition, the between visit change in MDS-UPDRS (total and subsections) within the NR, MRS-responder, and placebo groups was assessed by paired Student's t-test. For the 31P-MRS analyses, the change in measured metabolites between visit 1 and visit 2 was assessed in the placebo- and NR group using paired Student's t-test. In addition, the between-visit change in NAD/ATP-α was compared between the NR and placebo group by independent Student's t-test. For PET analyses, changes in network scores with treatment were evaluated for each group separately using paired Student's t-tests or permutation tests. Relationships between network values, NAD levels and MDS-UPDRS motor ratings or between treatment-related changes in these variables were evaluated using Pearson's product-moment correlations; Spearman rank-order correlation coefficients were computed for non-normal distributions of the variables. These statistical tests were performed using SPSS (SPSS Inc., Chicago, IL); results were considered significant for p≤0.05 (two-tailed). Metabolite quantification data, Nf-L; GDF15, FGF21 and cytokine data were analyzed by paired sample Wilcoxon test using GraphPad Prism v 6.07.

NC(=O)c1ccc[n+]([C@@H]2O[C@H](CO)[C@@H](O)[C@H]2O)c1 [NR, nicotinamide riboside]
neuroprotection in mice (mice): neuroprotective effects
FGF21 in serum ([1]; NR group, visit 2 vs visit 1): unchanged
GDF15 levels in CSF (decrease) ([1]; NR group, visit 2 vs visit 1): not in CSF
GDF15 levels in serum ([1]; NR group, visit 2 vs visit 1): mild but significant decrease
neurofilament light chain (Nf-L) levels in serum and CSF ([1]; NR group, visit 2 vs visit 1): unchanged
levels of several inflammatory cytokines in serum and CSF ([1]; NR group, within-group, visit 2 vs visit 1): reduced
fold change of serum cytokines that also decreased in placebo, compared between groups ([1]; NR vs placebo): no significant difference
